Laboratory results published in US20090196854A1, “METHODS AND COMPOSITIONS FOR USE OF CRL 5803 CELLS FOR EXPRESSION OF BIOTHERAPEUTICS AND ENCAPSULATED CELL-BASED DELIVERY” (priority 2008, published 2009).
In brackets after ≈: the same amount, converted by molar mass.

Key:
K3.4 = test: 5FC and 5FU dose-response in BDNF-expressing CRL 5803 line and CD transfectants; type: cell-based; conditions: Homo sapiens, read-out: IC50 for 5-FU
Description: (§1) CRL 5803 cells expressing BDNF and CD: The CRL 5803 cell line was transfected with BDNF and clones expressing BDNF were selected. These selected clones were expanded to provide cells for transfections with cytosine deaminase plasmid (CX014). Four CD gene transfection studies were performed with three different BDNF-expressing cell lines. For each cell line at least 24 resistant clones were picked and screened for sensitivity to 100 μM 5FC. The clones with the lowest survival in 5FC (as percent of control wells) were then expanded for dose-response studies with 5FC and 5FU. Cytotoxicity of 5FC was used as an indication of CD gene expression, and this screen provided 6-9 clones per transfection. The IC50 for 5FU indicated the maximum potential cytotoxicity of the prodrug, 5FC, in cells expressing sufficient levels of CD gene and protein.

K3.3 = test: as above; type: cell-based; conditions: Homo sapiens; K3.3; read-out: IC50 for 5FU
Description: as §1

K3.31 = test: as above; type: cell-based; conditions: Homo sapiens; K3.31; read-out: IC50 for 5FU
Description: as §1

[1] = tested on: all cell lines except for ARPE-19 and A2058 (CRL 5803, CCL-205, CRL1440); test: sensitivity to 5-FU, growth monitored with resazurin; type: cell-based, human; conditions: all cell lines except ARPE-19 and A2058
ARPE-19 cells = test: as above
Description: (§2) The newly selected cell types were then screened for r sensitivity to 5-fluorouracil (5-FU). This screening was accomplished by plating the cell lines in 48 well plates, and after overnight attachment adding varying concentrations of 5-FU from 0-500 μM. The growth of the cells was then monitored at 1-2 day intervals with the fluorescent substrate resazurin.

BON cell line = test: 5-FU cytotoxicity screen; type: cell-based; conditions: Homo sapiens, neutral red endpoint after 5-7 days, read-out: concentration required to kill 50% of the cells
Description: Drug Exposure and elimination of BON cell line: The drug 5-FU was dissolved in DMSO at a concentration of 0.5 M, and this stock used to make media with micromolar concentrations of the drug ([…]). Cells plated in 24 or 48 well plates in growth phase were cultured with 5-FU supplemented medium for 1-2 weeks. […] This growth measurement was conducted during exposure and if cells grew or survived, growth was followed in the weeks subsequent to removal of 5-FU.
In initial screening, an endpoint assay of viability was performed with the uptake of neutral red (50 μg/ml for 1 h) after 5-7 days, later studies of the selected cell lines used resazurin to monitor growth, as well as viable cell mass.

A2058 = tested on: A2058
Description: as §2

CCL205 polyclones = test: Blsd dose-response of growth in BSD-transfected polyclones; type: cell-based, human
Excerpt: (§3) Each cell line was transfected under conditions optimized for that specific cell line, and with each of three different constructs. Within 2-3 days of transfection the cultures were selected with blasticidin at the appropriate selection concentration identified for that cell line.
(§4) The three plasmid constructs tested differed in the promoter used to control the expression of the BSD gene (commercial plasmids from Invitrogen). At the end of selection (10-14 days) the surviving cells were passaged to establish a B1sd-resistant polyclone. Each Blsd-resistant polyclonal cell line was analyzed for the capacity to grow in Blsd at varying concentrations. The Blsd dose-response curve was plotted (growth vs dose) and the IC50 calculated for each promoter construct. The IC50 was taken to indicate the average BSD enzyme expression and activity level, and to indicate the relative activity of the regulatory elements in each cell line context.

CRL1440 polyclones = test: as above; type: cell-based, human
Excerpt: as §3, §4

CRL 5803 polyclones = test: as above; type: cell-based, human; conditions: for IC50 for Blsd-resistant growth: CRL 5803
Excerpt: as §3, §4

ARPE-19 polyclones = test: as above; type: cell-based, human
Excerpt: as §3, §4

CCL205 = type: cell-based, human
Description: (§5) The cell lines were plated in 48 well plates at an appropriate dilution of cells for each cell line to provide for rapid entry into log phase of growth. The various concentrations of the selection drugs were added so that the drugs were present at the initiation of log phase growth and viable cells were determined after 7-10 days of culture. The screening used data for functional mass at the end of the study to express viable cells as a percentage of the vehicle, or no-treatment control wells. […] The % viable cell mass data was plotted, and fitted typically with a four-parameter equation. The fitted equation was used to calculate the IC50 dose. The drugs tested were G418 (inactivated by neomycin phophotransferase, NPT), hygromycin (inactivated by hygromycin phosphotansferse, HPT), blasticidin (inactivated by blasticidin deaminase, BSD), and zeocin (bound by bleomycin binding protein, BBP). These antibiotics were obtained from Invitrogen/Gibco (Invitrogen SA, Barcelona).
(§6) The drugs, G418, Zeocin, hygromycin, and blasticidin were obtained and used as described earlier. The most important aspect of these studies was to identify the concentration needed to kill all non-transfected cells.

ARPE-19 = type: cell-based, human
Description: as §5, §6

CRL5803 = type: cell-based, human
Description: as §5, §6

CRL1440 = type: cell-based, human
Description: as §5, §6

CRL5867 = test: selection drug and ouabain sensitivity screen; type: cell-based, human; conditions: resistant if IC50 >1000 μg/ml (G418, hygromycin), ouabain 10^-4 M range
Description: (§7) The cell lines were plated in 48 well plates at an appropriate dilution of cells for each cell line to provide for rapid entry into log phase of growth. The various concentrations of the selection drugs were added so that the drugs were present at the initiation of log phase growth and viable cells were determined after 7-10 days of culture. The screening used data for functional mass at the end of the study to express viable cells as a percentage of the vehicle, or no-treatment control wells. Each treatment concentration was based on results for at least 3-4 wells. The % viable cell mass data was plotted, and fitted typically with a four-parameter equation. The fitted equation was used to calculate the IC50 dose. The drugs tested were G418 (inactivated by neomycin phophotransferase, NPT), hygromycin (inactivated by hygromycin phosphotansferse, HPT), blasticidin (inactivated by blasticidin deaminase, BSD), and zeocin (bound by bleomycin binding protein, BBP). These antibiotics were obtained from Invitrogen/Gibco (Invitrogen SA, Barcelona). Cells were considered to be resistant if the IC50 was >1000 μg/ml for G418, hygromycin, and zeocin, or concentrations >20 μg/ml for blasticidin. Although ouabain is not a classical selection drug, the rodent gene for Na—K ATPase shifts the sensitivity into the 10^−4 M range, while human cells are sensitive in the 10^−9 to 10^−6 M range, thus IC50s in the 10^−4 M range were taken to indicate resistance.

CRL1803 = test: selection drug and ouabain sensitivity screen; type: cell-based, human; conditions: ouabain IC50 in the 10^-4 M range taken as resistance
Description: as §7

CRL5808 = test: selection drug and ouabain sensitivity screen; type: cell-based, human; conditions: ouabain IC50 in the 10^-4 M range taken as resistance
Description: as §7

[2] = tested on: human cell lines (CCL205, A2058, CRL1440, ARPE-19, CRL 5803); type: cell-based
CRL 5803 = test: sensitivity to killing by 2-deoxyglucose; type: cell-based, human; conditions: up to 20 mM 2-DG
Description: (§8) The glucose requirements of CRL 5803 was also determined and compared to the HTB10 and CRL5816 cell lines.

[3] = tested on: four candidate cell lines; test: 2-deoxyglucose sensitivity (growth) of cell lines screened for CNS use; type: cell-based, human
Description: (§9) The 2-deoxyglucose sensitivity was tested with the 4 cell lines being screened for CNS use with doses of 2-DG from 1-20 mM, the HTB10 cell line was also included in this screen as a positive control for 2-DG killing. […] However, 2-DG did result in slowed growth, and concentrations producing 50% inhibition (IC50) were calculated (based on a four-parameter fit of the data).

CRL5816 cells = test: sensitivity to killing by 2-deoxyglucose; type: cell-based, human; conditions: 10 mM 2-deoxyglucose, 4 days
HTB10 = test: sensitivity to killing by 2-deoxyglucose; type: cell-based, human
Description: as §8, §9

O=c1[nH]cc(F)c(=O)[nH]1 [5-FU, 5-fluorouracil]
IC50 (K3.4): 8.5 ± 0.3 µM | IC50 (K3.3): 5 ± 1 µM | IC50 (K3.31): 9 ± 1 µM | concentration of 5-FU that resulted in 50% killing [1]: < 35 µM | 5-FU concentrations that slowed growth (ARPE-19 cells): > 5 µM | 5-FU doses with killing and growth arrest (ARPE-19 cells): > 10 µM | doubling time after 5-FU exposure (ARPE-19 cells): 60 h | lethal dose of 5-FU (ARPE-19 cells): 500 µM | effect of 100 μM 5-FU (ARPE-19 cells; ARPE-19, 2 weeks of exposure): not a lethal dose | IC50 (BON cell line): ≥ 500 µM | 5-FU concentration at which killing began (A2058): > 500 µM | 5-FU concentration that did not affect the cell line (A2058): < 10 µM | 5-FU concentrations with dominantly cytostatic response (A2058): 10 to 100 µM

CN(CC[C@H](N)CC(=O)N[C@H]1C=C[C@H](n2ccc(N)nc2=O)O[C@@H]1C(=O)O)C(=N)N [Blasticidin]
IC90 (CCL205 polyclones; CMV promoter): > 3 µg/mL | IC90 (CCL205 polyclones; EF-1 and UBq promoter constructs): 0.8 µg/mL (≈ 1.89 µM) | growth-based IC50 (CCL205 polyclones; all three promoter constructs): 0.6 µg/mL | IC50 for Blsd-resistant growth (CRL1440 polyclones; CMV promoter-BSD): 0.6 µg/mL | IC50 for Blsd-resistant growth (CRL1440 polyclones; EF-1 promoter polyclones): 5 µg/mL | IC50 for Blsd-resistant growth (CRL1440 polyclones; UBq promoter polyclones): 21 µg/mL | IC50 for Blsd-resistant growth (CRL 5803 polyclones; CMV promoter-BSD): 21 µg/mL | IC50 for Blsd-resistant growth (CRL 5803 polyclones; EF-1α promoter-BSD): 3 µg/mL | IC50 for Blsd-resistant growth (CRL 5803 polyclones; UBq promoter-BSD): 35 µg/mL | IC50 for growth in Blsd (CRL 5803 polyclones; CRL 5803 control cells transfected with NPT plasmid (no BSD)): 1 μg-Blsd/ml | shift in the inhibitory concentration of Blsd (CRL 5803 polyclones; CRL 5803 polyclones, best promoter): 30 fold | IC50 for Blsd-resistant growth (ARPE-19 polyclones; CMV promoter-BSD): 12 µg/mL | IC50 for Blsd-resistant growth (ARPE-19 polyclones; EF-1a promoter-BSD): 4.5 µg/mL | IC50 for Blsd-resistant growth (ARPE-19 polyclones; UBq promoter-BSD): 3 µg/mL | shift in the inhibitory concentration of Blsd (ARPE-19 polyclones; best promoter): 8 fold | concentration found to kill non-transfected cells (CCL205): 1 µg/mL | concentration found to kill non-transfected cells (ARPE-19): 3 µg/mL | concentration found to kill non-transfected cells (CRL5803): 2 µg/mL | concentration found to kill non-transfected cells (CRL1440): 1 µg/mL

C[C@@H]1O[C@@H](O[C@H]2C[C@@H](O)[C@]3(CO)[C@H]4[C@H](O)C[C@]5(C)[C@@H](C6=CC(=O)OC6)CC[C@]5(O)[C@@H]4CC[C@]3(O)C2)[C@H](O)[C@H](O)[C@H]1O [ouabain]
resistance or sensitivity to drug (CRL5867): resistance | resistance or sensitivity to drug (CRL1803): resistant | resistance or sensitivity to drug (CRL5808): resistant

O=c1ccc2nc3ccc(O)cc3oc-2c1 [resorufin]
concentration toxic with many cells [2]: 1000 to 10000 nM

CN[C@@H]1[C@@H](O)[C@@H](O[C@@H]2[C@@H](O)[C@H](O[C@H]3O[C@H]([C@@H](C)O)[C@@H](O)[C@H](O)[C@H]3N)[C@@H](N)C[C@H]2N)OC[C@]1(C)O [G418]
resistance or sensitivity to drug (CRL5867): sensitive to killing | concentration found to kill non-transfected cells (CCL205): 75 µg/mL | concentration found to kill non-transfected cells (ARPE-19): 175 µg/mL | concentration found to kill non-transfected cells (CRL5803): 500 µg/mL | concentration found to kill non-transfected cells (CRL1440): 100 µg/mL

O=CC[C@@H](O)[C@H](O)[C@H](O)CO [2-DG, 2-deoxyglucose]
sensitivity to killing by 2-deoxyglucose (CRL 5803): nor was it sensitive to killing | IC50 ([3]; Homo sapiens, range over the cell lines, four-parameter fit, read-out: concentrations producing 50% inhibition (IC50) of growth): 5000 to 11000 µM | killing by 2-DG ([3]; doses of 2-DG from 1-20 mM): no killing | viable cells after 2-deoxyglucose (CRL5816 cells): no detectable viable cells | killing by 2-DG (HTB10; HTB10 positive control, doses 1-20 mM): killed with the lowest concentration | IC50 (HTB10; Homo sapiens, HTB10, read-out: 2-DG concentration for 50% killing): 600 µM
